{
  "source": "patent US20230106592A1",
  "about": "“METHOD FOR TREATING CANCER USING A COMBINATION OF DNA DAMAGING AGENTS AND ATR INHIBITORS” (Vertex Pharmaceuticals Incorporated, priority 2015, published 2023)",
  "key": {"[1]": {"test_system": "OD26749 primary human non-small cell lung cancer xenografts", "test": "Primary NSCLC xenograft, dose schedule in combination with cisplatin", "type": "in vivo, SCID mice", "source_text": "This contrasts with the effects of either agent given alone, where neither Compound A-2the nor cisplatin had any meaningful impact on tumor growth (≤10% tumor growth inhibition)."}, "[2]": {"test": "Phase I trial, combination with cisplatin: pharmacokinetics", "type": "in vivo, human", "source_text": "Non-DLT grade 3-4 treatment-related adverse events occurred in 11 pts, including nausea, cytopenia, hypotension, hypoalbuminemia, hypokalemia, elevated liver function tests (LFTs), and drug hypersensitivity. The maximum tolerated combination dose was not reached."}, "advanced solid tumors": {"test_system": "advanced solid tumors", "test": "Phase I trial, combination with gemcitabine: response and PFS", "type": "in vivo, human", "procedure": "Fifty (50) pts (28 males and 22 females) of median age, 62 yrs (range 28-79 yrs), with Eastern Cooperative Oncology Group (ECOG) performance status 0/1:15/35 were treated. Primary tumors included non-small cell lung (NSCLC; n=6), pancreatic (n=2), breast (n=4), colorectal (n=15), head and neck (n=1), and other/missing (n=22)."}, "[3]": {"test": "Phase I trial, combination with gemcitabine and cisplatin: DLTs", "type": "in vivo, human"}, "[4]": {"details": "Compound A-2 10 mg/kg twice weekly, 14 hours after cisplatin 3 mg/kg weekly"}},
  "data": [
    {"smiles": "CNCc1ccc(-c2cc(-c3nc(-c4ccc(S(=O)(=O)C(C)C)cc4)cnc3N)on2)cc1", "note": "[Compound A-2]", "values": [
      {"measurement": "Efficacy (tumor volume)", "setting": "[1]; Compound A-2 10 mg/kg twice weekly dosed 14 hours after cisplatin 3 mg/kg weekly", "result": "most effective"},
      {"measurement": "Growth delay", "setting": "[1]; [4]", "result": "substantial growth delay"},
      {"measurement": "Tumor regression", "setting": "[1]; [4]", "result": 43, "unit": "%"},
      {"measurement": "Body weight loss at nadir", "setting": "[1]; combination of Compound A-2 and cisplatin", "result": "< 2", "unit": "%"},
      {"measurement": "half-life", "setting": "[2]; both sexes, human, in vivo, intravenous, combination with CIS, read-out: Terminal elimination half-life (converted)", "result": "~16", "unit": "h"},
      {"measurement": "PK across the dosage ranges", "setting": "[2]; combination with CIS, 90-210 mg/m^2", "result": "proportional"},
      {"measurement": "Effect of CIS on the pharmacokinetics of Compound A-2", "setting": "[2]; in vivo", "result": "no effect"},
      {"measurement": "Progression-free survival (PFS)", "setting": "advanced solid tumors; 1 patient with renal cancer (papillary carcinoma), combination with gem", "result": 415, "unit": "days"},
      {"measurement": "Median PFS", "setting": "advanced solid tumors; Compound A-2 <90 mg/m^2 + gemcitabine 875 mg/m^2", "result": 8.3, "unit": "weeks"},
      {"measurement": "Median PFS", "setting": "advanced solid tumors; Compound A-2 ≥90 mg/m^2 + gemcitabine 500 mg/m^2", "result": 29.3, "unit": "weeks"},
      {"measurement": "Prolonged stable disease (SD) responses", "setting": "advanced solid tumors; combination with gem", "result": 2, "unit": "pts"},
      {"measurement": "Best overall response partial response (PR)", "setting": "advanced solid tumors; combination with gem, 50 pts", "result": 4, "unit": "pts"},
      {"measurement": "Progression-free survival (PFS)", "setting": "advanced solid tumors; pt with GIST, combination with gem", "result": "> 191", "unit": "days"},
      {"measurement": "Time on trial", "setting": "advanced solid tumors; pt with breast cancer in DL8", "result": "> 133", "unit": "days"},
      {"measurement": "No. of Patients with DLTs", "setting": "[3]; Cohort 11: Compound A-2 90 + Gemcitabine 875 + Cisplatin 60 mg/m^2, 6/6, thrombocytopenia/neutropenia", "result": "1 (thrombocytopenia/"},
      {"measurement": "No. of Patients with DLTs", "setting": "[3]; Cohort 12: Compound A-2 120 + Gemcitabine 875 + Cisplatin 60 mg/m^2, 2/2, febrile neutropenia/thrombocytopenia, hypoxia/neutropenia", "result": "2 (febrile neutropenia/"}
    ]}
  ]
}
